The record followed here is PubChem BioAssay (NCI).

SMILES strings stand for the structures. Several values for one entry are separate records, joined by “and”; a condition that tells them apart may be missing. Equal entries are not always repeated.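 All cell lines were grown in 96-well plates and treated with compound for 48 hours. GI50 marks 50% less growth. TGI marks complete inhibition of growth.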

Holding throughout (assay): DTP human tumour cell line panel, 48 h
For assay [1], the system named is OVCAR-4 ovarian.
In assay [2] the test system is U251 CNS.
Assay [3] deals with M14 melanoma.
In assay [4] the test system is HCT-116 colon.
Assay [5] relates to SK-MEL-2 melanoma.
Assay [6] deals with OVCAR-8 ovarian.
Assay [7] relates to RXF 393 renal.
Assay [8] concerns HOP-92 NSCLC.
In assay [9] the test system is SR leukemia.
The subject of assay [10] is A549 NSCLC.

For `Cc1cc(C(=O)/C=C/c2ccc[nH]2)ccc1-n1ccc(C(F)(F)F)n1`, the GI50 was 3.18 µM in assay [1]; 3.5 µM in [2]; 30.7 µM in [3]; 8.63 µM in assay [4]; more than 100 µM in [5]; 6.27 µM in [6]. Further, the GI50 was 1.8 µM in [7], 11.4 µM in [8], 3.72 µM in [9] and 6.82 µM in assay [10]. Further, the TGI in assay [1], in assay [2], in assay [3], in [4], in [5] and in [6] was more than 100 µM throughout. Also, the TGI in [7] is 4.74 µM; in assay [8], more than 100 µM; in assay [9] it was 80.1 µM; in assay [10], more than 100 µM.

Regarding `NCCCCCNc1noc(Cc2c[nH]c3cc(Br)ccc23)n1`, the GI50 in [1] is 6.7 µM; in assay [2], 2.89 µM; in [3], 0.445 µM; in [4], 0.675 µM; in assay [5] it was 3.22 µM; in assay [6], 3.74 µM. In addition, the GI50 was 1.54 µM in assay [7], 4.62 µM in [8], 0.406 µM in assay [9] and 3.88 µM in [10]. Moreover, the TGI in [1] was determined as 52.4 µM; in assay [2] it was 16.6 µM; in assay [3] it was 10.3 µM; in assay [4] it was 13.4 µM; in assay [5], 16.3 µM; in assay [6], 39.4 µM. Further, the TGI in assay [7] is 5.17 µM; in assay [8], 33.6 µM; in assay [9], 14.1 µM; in [10], 38.8 µM.

Consider `C[C@]12CC[C@@H]3c4ccc(O)cc4CC[C@H]3[C@@H]1CC[C@@H]2NS(=O)(=O)c1ccc(Br)cc1`, for which the GI50 in [1] was 3.01 µM; in assay [2] it was 2.89 µM; in assay [3], 2.14 µM; in assay [4] it was 2.29 µM; in [5] it was 2.35 µM; in assay [6], 3.14 µM. Moreover, the GI50 is 2.43 µM in assay [7], 1.76 µM in [8], 3.37 µM in assay [9] and 2.89 µM in assay [10]. The TGI in assay [1] is 12.4 µM; in assay [2], 10.6 µM; in [3] it was 4.66 µM; in assay [4], 5.16 µM; in assay [5], 5.3 µM; in [6], 11.3 µM. The TGI is 4.99 µM in assay [7], 4.93 µM in [8], 39.3 µM in [9] and 11.1 µM in assay [10].

`CO[C@@H]1CCN(c2nccc(Nc3cc4c(C(C)C)ccc(N5CC(CS(C)(=O)=O)[C@H]5C)c4cn3)n2)C[C@@H]1F` (some centres undefined): the GI50 in [1] is 2.92 µM; in [2], 4.31 µM; in assay [3], 5.93 µM; in [4], 3.26 µM; in assay [5], 4.7 µM; in [6] it was 2.83 µM. Also, the GI50 is 2.96 µM in assay [7], 10.6 µM in assay [8], 2.87 µM in [9] and 3.06 µM in assay [10]. Further, the TGI is 53.1 µM in assay [1]; more than 100 µM in [2]; more than 100 µM in [3]; more than 100 µM in [4]; 17.6 µM in [5]; more than 100 µM in assay [6]. The TGI in assay [7] is 7.65 µM; in assay [8] it was more than 100 µM; in [9] it was 32.7 µM; in assay [10], more than 100 µM.

With `NC(=S)N=Nc1c(O)[nH]c2c(Cl)cc(Cl)cc12`, the TGI in assay [1] is more than 100 µM; in assay [2], 40.9 µM; in assay [3], 32.3 µM; in [4], 40.5 µM; in assay [5], 34.8 µM; in [6], 40.8 µM. The TGI in [7] was 33.7 µM; in [8], more than 100 µM; in assay [9], 70.4 µM; in assay [10], more than 100 µM.

`CS(=O)(=O)Nc1cc(-c2ccc3ncnc(Nc4ccc(F)c(Cl)c4)c3c2)cnc1Cl`: the GI50 in [1] was 1.22 µM and 1.47 µM; in assay [2], 0.511 µM and 0.856 µM; in [3], 0.477 µM and 0.718 µM; in assay [4] it was 0.783 µM and 0.946 µM; in assay [5], 0.289 µM and 0.441 µM; in assay [6] it was 1.68 µM and 1.72 µM. The GI50 in assay [7] is 0.563 µM and 0.31 µM; in assay [8], 0.162 µM and 0.0782 µM; in assay [9], 0.577 µM and 2.2 µM; in [10], 1.14 µM and 1.26 µM. Also, the TGI is 10.8 µM and 10.4 µM in [1]; 2.57 µM and 9.19 µM in assay [2]; 4.53 µM and 6.29 µM in [3]; 3.22 µM and 5.22 µM in [4]; 1.53 µM and 2.32 µM in [5]; 12.9 µM and > 40.4 µM in assay [6]. In addition, the TGI was 4.07 µM and 1.71 µM in assay [7]; 0.893 µM and 0.797 µM in [8]; 5.56 µM and 43 µM in assay [9]; 4.67 µM and 5.81 µM in [10].

With `COc1cccc(/C=C/c2nc3c(cnn3-c3ccccc3)c(=O)[nH]2)c1`, the GI50 in [1] was more than 34.9 µM; in [2], more than 72.1 µM; in assay [3] it was more than 39 µM; in [4] it was 12 µM; in assay [5], more than 100 µM; in assay [6], more than 54.7 µM. Further, the GI50 in assay [7] was 17.3 µM; in [8] it was more than 100 µM; in assay [10], more than 39.6 µM. The TGI in [1], in assay [2], in assay [3], in assay [4], in assay [5] and in [6] was more than 100 µM throughout. Moreover, the TGI in assay [7] was 67.9 µM; in assay [8], more than 100 µM; in assay [9] it was more than 100 µM; in assay [10], more than 100 µM.

Regarding `Cc1cccc(C)c1NC(=O)CCc1nnc2s/c(=C\c3ccc(N(C)C)cc3)c(=O)n12`, the TGI in assay [1], in assay [2], in assay [3], in assay [4], in [5] and in assay [6] was more than 100 µM in each case. In addition, the TGI in [7], in assay [8], in assay [9] and in assay [10] was more than 100 µM in each case.

Regarding `CNC(=O)c1cc(Oc2cccc3nc(NC(=O)Nc4cc(C(F)(F)F)cc(C(F)(F)F)c4)ccc23)ccn1`, the GI50 is 2.37 µM in assay [1]; 2.47 µM in assay [2]; 10.2 µM in [3]; 13.8 µM in assay [4]; 12.7 µM in assay [5]; 5.09 µM in assay [6]. The GI50 in assay [7] was 3.03 µM; in assay [8], 2.5 µM; in assay [9] it was 13 µM; in assay [10], 4.54 µM. Also, the TGI in assay [1] turned out to be 7.51 µM; in assay [2] it was 6.27 µM; in [3], 62.8 µM; in [4] it was 41.8 µM; in assay [5] it was 25.6 µM; in [6], 26.8 µM. The TGI was 9.48 µM in assay [7], 6.27 µM in [8], more than 100 µM in assay [9] and more than 100 µM in assay [10].

As to `O=C(CSCC(=O)N/N=C/c1ccccc1O)N/N=C\c1ccccc1O`, the GI50 is 1.72 µM in [1]; 1.06 µM in assay [2]; 1.51 µM in assay [3]; 1.06 µM in [4]; 5.35 µM in [5]; 1.92 µM in assay [6]. Besides, the GI50 in [7] is 2.46 µM; in assay [8], 1.73 µM; in assay [9] it was 0.668 µM; in assay [10], 3.2 µM. Also, the TGI in assay [1] is more than 100 µM; in [2] it was more than 100 µM; in assay [3], 12.5 µM; in [4], more than 100 µM; in [5] it was more than 100 µM; in [6], more than 100 µM. In addition, the TGI in assay [7], in assay [8], in assay [9] and in [10] was more than 100 µM each time.

In the case of `Cc1ccc(Nc2cc(Cl)c([N+](=O)[O-])cc2[N+](=O)[O-])cc1`, the GI50 in assay [1] is 4.52 µM; in assay [2], 3.36 µM; in [3] it was 3.96 µM; in [4], 2.59 µM; in assay [5], 3.31 µM; in assay [6], 3.37 µM. Moreover, the GI50 is 2.57 µM in assay [7], 2.69 µM in assay [8], 0.927 µM in assay [9] and 7.76 µM in [10]. The TGI is 16.2 µM in assay [1]; 12.4 µM in assay [2]; 15.6 µM in assay [3]; 6.94 µM in assay [4]; 8.94 µM in assay [5]; 13.9 µM in assay [6]. The TGI in assay [7] stood at 6.66 µM; in assay [8] it was 9.48 µM; in [9] it was 18.1 µM; in assay [10], 22.1 µM.

Consider `C/C=C/C/C=C/[C@H](C)C[C@H](O)[C@@H]1C[C@@H]2O[C@H]2/C=C/[C@@H]2OC(C)(C)O[C@H]2/C=C/C[C@H](C)CC(=O)O1`, for which the GI50 was 9.9 µM in assay [1]; 13.5 µM in assay [2]; 12.9 µM in assay [3]; 8.85 µM in [4]; 39.3 µM in assay [5]; 3.7 µM in assay [6]. In addition, the GI50 is 30.4 µM in assay [7], 6.71 µM in assay [8], 8.08 µM in [9] and 8.79 µM in assay [10]. Besides, the TGI in assay [1], in [2], in assay [3], in assay [4], in assay [5] and in [6] was more than 100 µM each time. The TGI is more than 100 µM in assay [7], 91.6 µM in assay [8], more than 100 µM in assay [9] and more than 100 µM in assay [10].

As to `C=C1c2ccccc2C(=O)c2c1c1c(C(=O)OC)c(OC(=O)OCc3ccc([N+](=O)[O-])cc3)ccc1n2Cc1ccccc1`, the GI50 in [1] was 23.2 µM; in assay [2], 39.9 µM; in [3] it was 27.6 µM; in [4], 4.48 µM; in assay [5] it was 23.9 µM; in assay [6] it was 2.51 µM. Further, the GI50 is 3.1 µM in assay [7], 2.29 µM in [8], 2.59 µM in assay [9] and 16.5 µM in [10]. Also, the TGI in [1] is more than 100 µM; in assay [2], more than 100 µM; in assay [3], more than 100 µM; in assay [4] it was 20.4 µM; in assay [5] it was more than 100 µM; in assay [6] it was more than 100 µM. For the same molecule, the TGI in assay [7] was more than 100 µM; in assay [8], 7.59 µM; in assay [9], more than 100 µM; in assay [10] it was more than 100 µM.

As to `CC[C@@]1(OC(=O)C(N)CCCCN)C(=O)OCc2c1cc1n(c2=O)Cc2cc3ccccc3nc2-1` (some centres undefined), the TGI in assay [1] is 2.84 µM; in assay [2], more than 11.6 µM; in [3], 1.37 µM; in assay [4], 0.495 µM; in assay [5], 1.39 µM; in assay [6], 3.1 µM. Further, the TGI in assay [7] was 0.861 µM; in assay [8] it was 1.72 µM; in assay [9], less than 0.0217 µM; in assay [10] it was 2.81 µM.

As for `Cc1cc(C(=O)Nc2n[nH]c3ccccc23)n[nH]1`, the GI50 in assay [1], in assay [2], in assay [3], in [4], in [5] and in [6] was more than 100 µM throughout. Also, the GI50 in assay [7] was more than 100 µM; in assay [8] it was more than 100 µM; in assay [9], 80.6 µM; in assay [10] it was more than 100 µM. For the same molecule, the TGI in assay [1], in assay [2], in assay [3], in assay [4], in assay [5] and in assay [6] was more than 100 µM throughout. The TGI in [7], in [8], in [9] and in assay [10] was more than 100 µM throughout.

`N#COc1ccc(Oc2ccccc2)cc1`: the TGI in assay [1], in [2], in assay [3], in [4], in assay [5] and in [6] was more than 100 µM in each case. For the same molecule, the TGI was more than 100 µM in assay [7], more than 100 µM in assay [8], 50 µM in assay [9] and more than 100 µM in assay [10].

As usually defined, the GI50 is the concentration at which growth is held to half of that of the control. As a reminder, the TGI is the concentration at which net growth stops.
